# Laboratory results taken from patent publication US7799809B2, “Carboxamide compounds and their use as calpain inhibitors” (Abbott GmbH & Co. KG, priority 2006, dated 2010).
# Experiments:
# Format in all cases: biochemical
# [1] = target: T1, cathepsin B (Homo sapiens, UniProt P07858); assay: Cathepsin B enzyme inhibition in vitro (kinetic fluorescence assay); details: cathepsin B isolated from human liver vs calpain I
# T1 construct: cathepsin B—isolated from human liver (Calbiochem #219362); purchased Calbiochem 219362; host or cells: human liver (tissue-derived)
# Method in brief: (§1)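 Cathepsin B (0.25 nM, human liver) with 100 μM Z-Phe-Arg-AMC; L (1 nM, human liver) with 2 μM Z-Phe-Arg-AMC; S (0.5 nM, recombinant) with 20 μM Z-Val-Val-Arg-AMC. pH 6.0 MES buffer, 2.5 mM L-cysteine, room temperature. Kinetic fluorescence (ex 390/em 460 nm); apparent Ki from IC50 by Cheng-Prusoff.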
# [2] = target: T2, cathepsin K (Homo sapiens, UniProt P43235); assay: Cathepsin K enzyme inhibition in vitro (kinetic fluorescence assay); details: cathepsin K activated from recombinant human procathepsin K vs calpain I
# T2 construct: purchased Calbiochem 342001; host or cells: E. coli
# T2 sequence (P43235 115-329): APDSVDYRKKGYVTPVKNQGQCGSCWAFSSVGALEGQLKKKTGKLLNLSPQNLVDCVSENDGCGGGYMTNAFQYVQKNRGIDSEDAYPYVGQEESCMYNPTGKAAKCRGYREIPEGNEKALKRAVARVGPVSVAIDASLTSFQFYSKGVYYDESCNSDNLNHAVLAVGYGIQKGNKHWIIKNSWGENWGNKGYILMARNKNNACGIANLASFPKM
# [3] = target: T3, cathepsin L (Homo sapiens, UniProt P07711); assay: Cathepsin L enzyme inhibition in vitro (kinetic fluorescence assay); details: cathepsin L isolated from human liver vs calpain I
# T3 construct: cathepsin L—isolated from human liver (Calbiochem #219402); purchased Calbiochem 219402; host or cells: human liver (tissue-derived)
# T3 sequence (P07711 114-333): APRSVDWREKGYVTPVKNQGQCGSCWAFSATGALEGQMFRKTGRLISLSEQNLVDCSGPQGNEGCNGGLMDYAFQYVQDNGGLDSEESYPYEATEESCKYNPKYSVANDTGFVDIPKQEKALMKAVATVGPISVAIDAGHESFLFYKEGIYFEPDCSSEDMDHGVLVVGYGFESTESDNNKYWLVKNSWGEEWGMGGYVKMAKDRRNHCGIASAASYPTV
# Method in brief: as §1
# [4] = target: T4, cathepsin S (Homo sapiens, UniProt P25774); assay: Cathepsin S enzyme inhibition in vitro (kinetic fluorescence assay); details: recombinant human cathepsin S vs calpain I
# T4 construct: purchased Calbiochem 219343; host or cells: E. coli
# T4 sequence (P25774 115-331): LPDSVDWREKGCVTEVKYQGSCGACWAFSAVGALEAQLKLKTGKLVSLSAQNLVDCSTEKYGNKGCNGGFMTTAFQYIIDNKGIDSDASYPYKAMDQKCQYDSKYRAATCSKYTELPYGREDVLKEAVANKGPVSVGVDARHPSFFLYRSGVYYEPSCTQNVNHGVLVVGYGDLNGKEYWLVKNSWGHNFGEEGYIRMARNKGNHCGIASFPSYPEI
# Method in brief: as §1
structure (smiles),measurement,setting,value
"NC(=O)C(=O)C(Cc1ccccc1)NC(=O)c1cccnc1-n1ccc(-c2ccc(N3CCCC3)cc2)n1 (stereo not shown) [Example 69, N-(3-Amino-1-benzyl-2,3-dioxopropyl)-2-[3-(4-pyrrolidin-1-ylphenyl)-1H-pyrazol-1-yl]nicotinamide]",Sel cat. B: Ki(cathepsin B)/Ki(calpain) ratio,[1],+ (+ means 10≦Ki(cathepsin B)/Ki(calpain)<30)
same,Sel cat. K: Ki(cathepsin K)/Ki(calpain) ratio,[2],+ (+ means 10≦Ki(cathepsin K)/Ki(calpain)<30)
same,Sel cat. L: Ki(cathepsin L)/Ki(calpain) ratio,[3],++ (++ means a Ki(cathepsin L)/Ki(calpain) ratio of ≧50)
same,Sel cat. S: Ki(cathepsin S)/Ki(calpain) ratio,[4],++ (++ means a Ki(cathepsin S)/Ki(calpain) ratio of ≧100)
"NC(=O)C(=O)C(Cc1ccccc1)NC(=O)c1cccnc1-n1ccc(-c2cc(F)cc(F)c2)n1 (stereo not shown) [Example 91, N-[3-Amino-2,3-dioxo-1-(phenylmethyl)propyl]-2-[3-(3,5-difluorophenyl)-1H-pyrazol-1-yl]pyridine-3-carboxamide]",Sel cat. B: Ki(cathepsin B)/Ki(calpain) ratio,[1],++ (++ means a Ki(cathepsin B)/Ki(calpain) ratio of ≧30)
same,Sel cat. K: Ki(cathepsin K)/Ki(calpain) ratio,[2],+ (+ means 10≦Ki(cathepsin K)/Ki(calpain)<30)
same,Sel cat. L: Ki(cathepsin L)/Ki(calpain) ratio,[3],++ (++ means a Ki(cathepsin L)/Ki(calpain) ratio of ≧50)
same,Sel cat. S: Ki(cathepsin S)/Ki(calpain) ratio,[4],++ (++ means a Ki(cathepsin S)/Ki(calpain) ratio of ≧100)
"NC(=O)C(=O)C(Cc1ccc(Cl)cc1)NC(=O)c1cccnc1-n1ccc(-c2ccccc2)n1 (stereo not shown) [Example 50, N-[3-Amino-1-(4-chlorobenzyl)-2,3-dioxopropyl]-2-(3-phenyl-1H-pyrazol-1-yl)nicotinamide]",Sel cat. B: Ki(cathepsin B)/Ki(calpain) ratio,[1],+ (+ means 10≦Ki(cathepsin B)/Ki(calpain)<30)
same,Sel cat. K: Ki(cathepsin K)/Ki(calpain) ratio,[2],+ (+ means 10≦Ki(cathepsin K)/Ki(calpain)<30)
same,Sel cat. L: Ki(cathepsin L)/Ki(calpain) ratio,[3],+ (+ means 30≦Ki(cathepsin L)/Ki(calpain)<50)
same,Sel cat. S: Ki(cathepsin S)/Ki(calpain) ratio,[4],+ (+ means 50≦Ki(cathepsin S)/Ki(calpain)<100)
"NC(=O)C(=O)C(Cc1ccccc1)NC(=O)c1cccnc1-n1ccc(-c2ccccc2)n1 (stereo not shown) [Example 5, N-(3-Amino-1-benzyl-2,3-dioxopropyl)-2-(3-phenyl-1H-pyrazol-1-yl)nicotinamide]",Sel cat. B: Ki(cathepsin B)/Ki(calpain) ratio,[1],+ (+ means 10≦Ki(cathepsin B)/Ki(calpain)<30)
same,Sel cat. K: Ki(cathepsin K)/Ki(calpain) ratio,[2],+ (+ means 10≦Ki(cathepsin K)/Ki(calpain)<30)
same,Sel cat. L: Ki(cathepsin L)/Ki(calpain) ratio,[3],++ (++ means a Ki(cathepsin L)/Ki(calpain) ratio of ≧50)
same,Sel cat. S: Ki(cathepsin S)/Ki(calpain) ratio,[4],++ (++ means a Ki(cathepsin S)/Ki(calpain) ratio of ≧100)
